Experimental data from PubChem BioAssay AID1963856 (Molecular Pharmacology Branch, DTP, NCI, 2024).
Activity calls are given as the source filed them. The calls were made as follows: active = viability on the fitted dose curve at most 10% of control; inactive = the rest.

Tested on: LG0567-F671-PDC KRAS tumor spheroid viability
Experiment: Anticancer human tumor LG0567-F671-PDC patient-derived lung adenocarcinoma cell line growth inhibition [KRAS2]
Details: spheroids with HUVEC and MSC; for IC50: curve of first compound; for viability, T/C: stronger effect = lower value
Method in brief: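 KRAS-mutant tumor cells were grown as spheroids with HUVEC endothelial cells and human MSCs as stroma. Targeted agents were tested alone and with KRAS pathway inhibitors. Doses started at or near clinical Cmax, or 10 microM, descending half-log.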

[1] = second compound 0.1 µM, first compound 0.0316 µM
[2] = second compound 0.1 µM, first compound 0.1 µM
[3] = second compound 0.1 µM, first compound 0.316 µM
[4] = second compound 0.1 µM, first compound 1 µM
[5] = second compound 0.1 µM, first compound 3.16 µM
[6] = second compound 0.1 µM, first compound 10 µM
[7] = second compound 0.316 µM, first compound 0.0316 µM
[8] = second compound 0.316 µM, first compound 0.1 µM
[9] = second compound 0.316 µM, first compound 0.316 µM
[10] = second compound 0.316 µM, first compound 1 µM
[11] = second compound 0.316 µM, first compound 3.16 µM
[12] = second compound 0.316 µM, first compound 10 µM
[13] = second compound 1 µM, first compound 0.0316 µM
[14] = second compound 1 µM, first compound 0.1 µM
[15] = second compound 1 µM, first compound 0.316 µM
[16] = second compound 1 µM, first compound 1 µM
[17] = second compound 1 µM, first compound 3.16 µM
[18] = second compound 1 µM, first compound 10 µM
[19] = second compound 3.16 µM, first compound 0.0316 µM
[20] = second compound 3.16 µM, first compound 0.1 µM
[21] = second compound 3.16 µM, first compound 0.316 µM
[22] = second compound 3.16 µM, first compound 1 µM
[23] = second compound 3.16 µM, first compound 3.16 µM
[24] = second compound 3.16 µM, first compound 10 µM
[25] = second compound 10 µM, first compound 0.0316 µM
[26] = second compound 10 µM, first compound 0.1 µM
[27] = second compound 10 µM, first compound 0.316 µM
[28] = second compound 10 µM, first compound 1 µM
[29] = second compound 10 µM, first compound 3.16 µM
[30] = second compound 10 µM, first compound 10 µM
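For IC50 in this document: drug exposure lasted seven days after spheroids formed for three days.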
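For viability, T/C in this document: drug exposure lasted seven days after spheroids formed for three days; 100% = DMSO vehicle control viability.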

SMILES: COC(=O)c1ccc2c(C(=Nc3ccc(N(C)C(=O)CN4CCN(C)CC4)cc3)c3ccccc3)c(O)[nH]c2c1 + CC1OCC2(CCN(c3cnc(Sc4ccnc(N)c4Cl)c(N)n3)CC2)C1N
- IC50 (second compound 0.1 µM): > 10000 nM
- IC50 (second compound 0.316 µM): < 31.6 nM
- IC50 (second compound 1 µM): < 31.6 nM
- IC50 (second compound 3.16 µM): < 31.6 nM
- IC50 (second compound 10 µM): < 31.6 nM
- viability, T/C [1]: 55.5%
- viability, T/C [2]: 50.5%
- viability, T/C [3]: 47.3%
- viability, T/C [4]: 57.5%
- viability, T/C [5]: 57.8%
- viability, T/C [6]: 51.8%
- viability, T/C [7]: 29.1%
- viability, T/C [8]: 29.2%
- viability, T/C [9]: 26.4%
- viability, T/C [10]: 39.5%
- viability, T/C [11]: 36.3%
- viability, T/C [12]: 37.3%
- viability, T/C [13]: 25.5%
- viability, T/C [14]: 23.4%
- viability, T/C [15]: 23.6%
- viability, T/C [16]: 30.6%
- viability, T/C [17]: 38.2%
- viability, T/C [18]: 34%
- viability, T/C [19]: 19.5%
- viability, T/C [20]: 20.1%
- viability, T/C [21]: 19%
- viability, T/C [22]: 24.1%
- viability, T/C [23]: 32.5%
- viability, T/C [24]: 27.8%
- viability, T/C [25]: 13.7%
- viability, T/C [26]: 13.9%
- viability, T/C [27]: 13.2%
- viability, T/C [28]: 19.5%
- viability, T/C [29]: 23.6%
- viability, T/C [30]: 26.7%

SMILES: O=C(c1cc(Cc2n[nH]c(=O)c3ccccc23)ccc1F)N1CCN(C(=O)C2CC2)CC1 + CC1OCC2(CCN(c3cnc(Sc4ccnc(N)c4Cl)c(N)n3)CC2)C1N
- IC50 (second compound 0.1 µM): > 10000 nM
- IC50 (second compound 0.316 µM): < 31.6 nM
- IC50 (second compound 1 µM): < 31.6 nM
- IC50 (second compound 3.16 µM): < 31.6 nM
- IC50 (second compound 10 µM): < 31.6 nM
- viability, T/C [1]: 63.8%
- viability, T/C [2]: 54%
- viability, T/C [3]: 60.3%
- viability, T/C [4]: 59.7%
- viability, T/C [5]: 54.4%
- viability, T/C [6]: 53.2%
- viability, T/C [7]: 37.9%
- viability, T/C [8]: 35.5%
- viability, T/C [9]: 32.3%
- viability, T/C [10]: 32.9%
- viability, T/C [11]: 33.5%
- viability, T/C [12]: 38.2%
- outcome [13]: inactive
- viability, T/C [14]: 40%
- viability, T/C [15]: 35.5%
- viability, T/C [16]: 29.8%
- viability, T/C [17]: 32.8%
- viability, T/C [18]: 28.6%
- viability, T/C [19]: 20.9%
- viability, T/C [20]: 20.8%
- viability, T/C [21]: 24.8%
- viability, T/C [22]: 26%
- viability, T/C [23]: 23.9%
- viability, T/C [24]: 23.8%
- viability, T/C [25]: 10.2%
- viability, T/C [26]: 11%
- viability, T/C [27]: 12.2%
- viability, T/C [28]: 11.8%
- viability, T/C [29]: 14.2%
- viability, T/C [30]: 17.4%
